Patent EP0877740B1, “THIOL DERIVATIVES WITH METALLOPEPTIDASE INHIBITORY ACTIVITY” (ZAMBON GROUP S.p.A., priority 1995, dated 1997)

Key:
[1] = molecular target: T1, ACE (Oryctolagus cuniculus, UniProt P12822); test: In vitro ACE-inhibitory activity (FAPGG substrate, spectrophotometric); type: biochemical; conditions: ACE purified by lung rabbit, FAPGG 0.8 mM, 37°C
T1 construct: ACE (250 mU/ml purified by lung rabbit, EC 3.4.15.1 SIGMA); purchased SIGMA; host or cells: rabbit lung (tissue-purified)
T1 sequence (P12822 34-1310): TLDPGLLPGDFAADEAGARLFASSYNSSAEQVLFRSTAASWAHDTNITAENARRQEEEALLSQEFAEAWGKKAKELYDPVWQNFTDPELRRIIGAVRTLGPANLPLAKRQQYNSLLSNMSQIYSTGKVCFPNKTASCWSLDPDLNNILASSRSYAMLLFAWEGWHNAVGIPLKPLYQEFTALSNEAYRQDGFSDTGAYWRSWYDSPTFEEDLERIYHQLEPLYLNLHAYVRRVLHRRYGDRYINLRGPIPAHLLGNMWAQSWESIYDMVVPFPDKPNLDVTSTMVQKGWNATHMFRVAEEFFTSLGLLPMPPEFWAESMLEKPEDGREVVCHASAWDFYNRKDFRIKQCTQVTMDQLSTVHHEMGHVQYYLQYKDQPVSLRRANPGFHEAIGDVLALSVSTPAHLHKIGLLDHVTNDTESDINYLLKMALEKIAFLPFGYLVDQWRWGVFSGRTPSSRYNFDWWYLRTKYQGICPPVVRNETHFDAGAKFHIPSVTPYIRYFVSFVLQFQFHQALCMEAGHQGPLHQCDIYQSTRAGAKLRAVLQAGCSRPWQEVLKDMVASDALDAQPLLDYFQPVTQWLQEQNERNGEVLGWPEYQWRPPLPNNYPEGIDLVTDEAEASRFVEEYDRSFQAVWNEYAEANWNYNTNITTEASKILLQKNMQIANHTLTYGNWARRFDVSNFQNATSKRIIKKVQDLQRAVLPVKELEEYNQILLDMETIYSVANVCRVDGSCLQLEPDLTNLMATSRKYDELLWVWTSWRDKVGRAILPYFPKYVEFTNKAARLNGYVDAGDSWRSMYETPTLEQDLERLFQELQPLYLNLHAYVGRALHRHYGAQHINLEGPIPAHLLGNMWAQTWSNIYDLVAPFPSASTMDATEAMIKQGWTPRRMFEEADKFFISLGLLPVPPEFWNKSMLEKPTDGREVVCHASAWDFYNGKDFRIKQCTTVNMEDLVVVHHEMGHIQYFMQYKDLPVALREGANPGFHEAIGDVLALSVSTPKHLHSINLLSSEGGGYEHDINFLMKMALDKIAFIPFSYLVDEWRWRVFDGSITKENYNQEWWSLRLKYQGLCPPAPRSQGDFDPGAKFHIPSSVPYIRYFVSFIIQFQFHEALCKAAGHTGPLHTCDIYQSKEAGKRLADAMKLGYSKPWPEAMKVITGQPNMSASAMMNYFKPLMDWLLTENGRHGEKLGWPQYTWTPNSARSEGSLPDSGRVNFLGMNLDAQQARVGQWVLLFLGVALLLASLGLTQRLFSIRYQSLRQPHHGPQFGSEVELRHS
Procedure: […] of ACE (250 mU/ml purified by lung rabbit, EC 3.4.15.1 SIGMA) were preincubated with 50 µl of the compound of formula I or of the reference compound or related vehicle in thermostated cuvettes at 37°C.
The reaction was started by adding furylacryloylphenylalanylglycylglycine 0.8 mM (FAPGG-SIGMA).
Contemporaneously, by using a Beckman DU-50 spectrophotometer provided with a program for calculating delta A/minutes and regression coefficients of the enzyme kinetics curves, the absorbance at 340 nm was recorded in continuo for 5 minutes.
The percentage of the enzyme inhibition in the preparations treated with the compounds of formula I or with the comparative compounds with respect to the untreated preparations was expressed as IC50 (nM) value.

[2] = molecular target: T2, NEP (Rattus norvegicus, UniProt P07861); test: In vitro NEP-inhibitory activity in rat kidney cortex membranes ([3H][Leu5]-enkephaline hydrolysis); type: biochemical; parameters: Kidneys were removed from male Sprague-Dawley rats weighing approximately 300 g; from tissue; host or cells: rat kidney cortex membranes (male Sprague-Dawley); conditions: [3H][Leu5]-enkephaline 15 nM, 30°C
T2 sequence (P07861 1-750): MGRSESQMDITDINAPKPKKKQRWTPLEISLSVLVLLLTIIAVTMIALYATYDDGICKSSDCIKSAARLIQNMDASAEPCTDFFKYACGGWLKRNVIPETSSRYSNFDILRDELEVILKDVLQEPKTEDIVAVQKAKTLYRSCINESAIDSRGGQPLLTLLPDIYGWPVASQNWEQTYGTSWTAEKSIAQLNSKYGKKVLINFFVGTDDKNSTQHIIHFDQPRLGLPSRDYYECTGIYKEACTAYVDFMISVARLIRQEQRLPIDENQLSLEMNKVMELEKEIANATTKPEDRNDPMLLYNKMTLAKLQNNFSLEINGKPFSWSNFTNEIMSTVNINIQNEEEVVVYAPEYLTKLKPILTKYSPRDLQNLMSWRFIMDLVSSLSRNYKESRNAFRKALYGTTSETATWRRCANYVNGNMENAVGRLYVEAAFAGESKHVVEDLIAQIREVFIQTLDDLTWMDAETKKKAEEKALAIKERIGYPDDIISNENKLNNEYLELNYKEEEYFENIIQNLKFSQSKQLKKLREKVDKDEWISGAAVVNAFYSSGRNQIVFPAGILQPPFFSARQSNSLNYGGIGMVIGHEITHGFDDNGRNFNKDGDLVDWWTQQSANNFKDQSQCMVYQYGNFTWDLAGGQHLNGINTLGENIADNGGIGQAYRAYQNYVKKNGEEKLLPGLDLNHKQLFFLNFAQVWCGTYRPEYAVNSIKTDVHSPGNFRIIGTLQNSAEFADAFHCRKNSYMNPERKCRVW
Procedure: The NEP-inhibitory activity was evaluated in rat kidney cortex membranes prepared according to the procedure described by T. Maeda et al. in Biochim. Biophys.
Kidneys were removed from male Sprague-Dawley rats weighing approximately 300 g and kept at 4°C.
Kidney cortex was carefully dissected, finely minced and suspended in a homogenization buffer (10 mM sodium phosphate pH 7.4 containing 1 mM MgCl2, 30 mM NaCl, 0.02% NaN3) 1:15 weight/volume.
The tissue was then cold homogenized for 30 seconds using an Ultra-Turrax homogenizer.
The membranes were collected from the buffer/sucrose interface, washed twice with 50 mM TRIS/HCl buffer (pH 7.4) and resuspended into the same buffer for storage in small aliquots at -80°C until use.
The NEP-inhibitory activity was evaluated by using the method described by C.
Aliquots of the membrane suspension prepared as above described (concentration 5 µg/ml of proteins) were preincubated in the presence of an aminopeptidase inhibitor (Bestatin - 1 mM) for 10 minutes at 30°C.
Incubation (20 minutes at 30°C) was stopped by adding HCI 0.1M (100 µl).
The formation of the metabolite [^3H]Tyr-Gly-Gly was quantified by chromatography on polystyrene columns (Porapak Q).
The percentage of inhibition of the metabolite formation in the membrane preparations treated with the compounds of formula I and with the comparative compounds with respect to the untreated membrane preparations was expressed as IC50 (nM) value.

O=C(N[C@@H](Cc1ccc(-c2nccs2)cc1)C(=O)O)[C@@H](CS)Cc1ccccc1 [Compound 16, N-[(2S)-3-mercapto-2-phenylmethylpropionyl]-4-(2-thiazolyl)-L-phenylalanine]
IC50 [1]: 3.2 nM
IC50 [2]: 1.8 nM
